Reference: patent US20260216134A1, “CHARGED PI-CONJUGATED MOLECULES FOR THE TREATMENT OF MICROBIAL INFECTIONS” (priority 2023, published 2026)
Read-outs that look alike come from different tables or passages of the source.

Columns and labels:
[1] = test system: A375 cancer cells (melanoma); assay: Crystal violet cytotoxicity test in A375 cells without light activation; type: cell-based, human
Method: (§1) The inhibitory concentration of charged pi-conjugated compounds needed to inhibit the cell growth by 50% (toxicity IC50).
(§2) Most of the charged pi-conjugated compounds are aminocyanines which are functionalized with alkyl amine group. The charged pi-conjugated compounds were added to cell cultures of A375 cancer cells (human melanoma) and their cytotoxicity was quantified by the crystal violet test and/or clonogenic assays for cell viability. […] The longer the exposure the most cytotoxic the charged pi-conjugated compounds are towards A375 cells. […] The same behavior is observed: the longer the exposure, the more cytotoxic. All molecules presented here are aminocyanines except GL-261-2 which is a carboxyl-cyanine. […] This was the first time a therapeutic window of concentration that can be tuned to selectively kill cancer and/or protect cells was suspected. In finding this therapeutic window concentration and time of exposure are important variables that should be fine tuned.
(§3) Based on the finding described above, a larger set of charged pi-conjugated compounds was evaluated for cytotoxicity against A375 cancer cells as shown in FIG. 25 and FIG. 26.
(§4) The IC50 is the concentration needed to inhibit the cell viability by 50%. These molecules in FIG. 25 and FIG. 26 were evaluated by crystal violet assay and using 2 days of exposure.

[2] = test system: A375 cancer cells (melanoma); assay: Clonogenic assay cytotoxicity in A375 cells without light; type: cell-based, human
Method: (§5) FIGS. 28A-28B provide a summary of the evidence of the cytotoxicity of charged pi-conjugated compounds without light. Toxicity was measured using clonogenic assay with 7 hours of incubation (contact time between molecules and A375 cells) and 7 days for colony formation. (FIG. 28A) The lethal concentration of the cyanine molecules to kill 50% of the A375 cells (Tox LC50) without light activation. (FIG. 28B) Chemical structure of exemplary charged pi-conjugated compounds. On average, 300 cells equal to 300 colonies were seeded and analyzed for each data point.
(§6) Both properties were measured using clonogenic assay with 7 hours of incubation (contact time between molecules and A375 cells) and 7 days for colony formation. 300 cells were seeded and analyzed for each data point.
(§7) More cytotoxicity tests were conducted in some additional molecules and using clonogenic assay for cell viability (FIG. 28). A375 cells were exposed to charged pi-conjugated compounds for 7 hours, in contrast to the previously presented assays which were conducted with crystal violet assay and 2 days of exposure. The data points showing the cytotoxicity quantification for each individual molecule are presented in FIG. 29, with resulting IC50 values summarized in Table 4.

[3] = Crystal violet cytotoxicity test in A375 cells without light activation; type: cell-based, human; settings: human
Method: as §1, §2, §3, §4

[4] = Clonogenic assay cytotoxicity in A375 cells without light; type: cell-based, human; settings: human
Method: as §5, §6, §7

Gram-positive strains = assay: MIC / MIC50 by broth microdilution in panel of Gram-positive strains; type: cell-based; settings: MIC50 over all Gram-positive strains tested (Table 2)
Method: Antibacterial activity was assessed by determining the minimal inhibitory concentration (MIC) and the minimal bactericidal concentrations (MBC) and by monitoring time-dependent bacterial killing of exponentially growing cells. Bacterial cell suspensions (OD600≈0.02 in cation-adjusted Muller-Hinton Broth) were treated with increasing concentrations of the different molecules. The minimal inhibitory concentration (MIC) was defined as the minimal concentration of the molecule resulting in complete bacterial growth arrest. The minimal bactericidal concentration (MBC) was defined as the lowest concentration of the molecule that killed 99.9% of the inoculum. A molecule was determined to be bactericidal if the ratio of the MBC to the MIC was less than 4 to 6. […] In M. smegmatis, the antibacterial activity of charged pi-conjugated compounds was generally lower.
The MIC values for all Gram-positive strains tested (Table 2) were used to calculate the MIC50, i.e., the minimum inhibitory concentration needed to inhibit the growth of 50% of the tested isolates (FIG. 5A). […] When the average MIC50 values were evaluated, the most susceptible bacterial genera were Streptococcus sp., followed by Staphylococcus sp. In contrast, Propionibacterium sp. had the highest average MIC50 (FIG. 5B).
The broth microdilution method was used to determine the MIC of charged pi-conjugated compounds according to the CLSI guidelines. Charged pi-conjugated compound stock solutions (16 mM) were prepared in dimethyl sulfoxide (DMSO). Serial twofold dilutions of the charged pi-conjugated compounds were freshly prepared using the appropriate liquid media (Table 2), and 100 μL of each dilution was added to the appropriate wells of 96-well microtiter plates. The bacterial inoculum was further diluted in liquid media, and 100 μL was added to each well, resulting in a final cell density of ≈5×10^5 CFU mL^−1. […] A molecule was determined to be bactericidal if the ratio of the MBC to the MIC was less than 4 to 6. […]

S. aureus = assay: Time-kill of combinations at 0.5×MIC; type: cell-based, Staphylococcus aureus; settings: 0.5×MIC of individual agent, after 12 h of treatment
[5] = crystal violet assay, 2 days of exposure, without light activation, read-out: IC50 (μM), cytotoxicity to A375 cancer cells
[6] = clonogenic assay, 7 hours of exposure, 7 days colony formation, without light, read-out: IC50 (μM), cytotoxicity to A375 cancer cells

Compound: CN1/C(=C/C=C2C=C(/C=C/C3=[N+](C)c4ccc5ccccc5c4C3(C)C)CCC/2)C(C)(C)c2c1ccc1ccccc21 [BL-141-1, 1,1,3-trimethyl-2-((E)-2-((E)-3-((E)-2-(1,1,3-trimethyl-1,3-dihydro-2H-benzo[e]indol-2-ylidene)ethylidene)cyclohex-1-en-1-yl)vinyl)-1H-benzo[e]indol-3-ium]
- IC50 [1, 5]: 0.125 µM
- IC50 [2, 6]: 0.14 µM

Compound: CN(C)CCCCCCN1/C(=C/C=C2C=C(/C=C/C3=[N+](CCCCCCN(C)C)c4ccc5ccccc5c4C3(C)C)CCC/2)C(C)(C)c2c1ccc1ccccc21.[Br-] [BL-142, 3-(6-(dimethylamino)hexyl)-2-((E)-2-((E)-3-((E)-2-(3-(6-(dimethylamino)hexyl)-1,1-dimethyl-1,3-dihydro-2H-benzo[e]indol-2-ylidene)ethylidene)cyclohex-1-en-1-yl)vinyl)-1,1-dimethyl-1H-benzo[e]indol-3-ium]
- IC50 at 2 days [3]: 2.5 µM
- cytotoxicity at long exposure [1]: showed cytotoxicity

Compound: CN1/C(=C/C=C2C=C(/C=C/C3=[N+](CCCCCC(=O)O)c4ccc5ccccc5c4C3(C)C)CCC/2)C(C)(C)c2c1ccc1ccccc21 [BL-242, 3-(5-carboxypentyl)-1,1-dimethyl-2-((E)-2-((E)-3-((E)-2-(1,1,3-trimethyl-1,3-dihydro-2H-benzo[e]indol-2-ylidene)ethylidene)cyclohex-1-en-1-yl)vinyl)-1H-benzo[e]indol-3-ium]
- IC50 at 7 h [4]: 2 µM

Compound: COC(=O)CCCCCN1/C(=C/C=C2C=C(/C=C/C3=[N+](CCCCCC(=O)OC)c4ccc5ccccc5c4C3(C)C)CCC/2)C(C)(C)c2c1ccc1ccccc21 [BL-246-1, 3-(6-methoxy-6-oxohexyl)-2-((E)-2-((E)-3-((E)-2-(3-(6-methoxy-6-oxohexyl)-1,1-dimethyl-1,3-dihydro-2H-benzo[e]indol-2-ylidene)ethylidene)cyclohex-1-en-1-yl)vinyl)-1,1-dimethyl-1H-benzo[e]indol-3-ium]
- IC50 at 7 h [4]: 0.6 µM

Compound: C[N+]1=C(C=CC=CC=C2N(CCCCCC(=O)NCCCCCCN)c3ccccc3C2(C)C)C(C)(C)c2ccccc21 [Cy5-amine]
- IC50 [1]: 8 µM

Compound: C[N+]1=C(/C=C/C=C/C=C2/N(CCCCCC(=O)NCCCCCCN)c3ccc4ccccc4c3C2(C)C)C(C)(C)c2c1ccc1ccccc21.Cl.[Cl-] [Cy5.5-amine]
- antibacterial activity according to MIC50 (Gram-positive strains): strongest antibacterial activity
- IC50 [1]: 2 µM
- cytotoxicity at short exposure [1]: safe and showed low cytotoxicity

Compound: C[N+]1=C(/C=C/C2=CC(=C/C=C3/N(CCCCCC(=O)NCCCCCCN)c4ccccc4C3(C)C)/CCC2)C(C)(C)c2ccccc21 [Cy7-amine]
- IC50 [1]: 2 µM
- IC50 [2]: 0.75 µM

Compound: CN1/C(=C/C=C/C=C/C=C/C2=[N+](C)c3ccc4ccccc4c3C2(C)C)C(C)(C)c2c1ccc1ccccc21 [GL-176]
- IC50 [1]: 0.25 µM

Compound: CN1/C(=C/C=C/C=C/C=C/C2=[N+](CCCCCC(=O)O)c3ccc4ccccc4c3C2(C)C)C(C)(C)c2c1ccc1ccccc21 [GL-261-2]
- IC50 at 2 days [3, 5]: 2 µM
- cytotoxicity at short exposure ([1]; A375, exposure ~30-50 min): safe and showed low cytotoxicity
- effect toward A375 cells at short exposure ([1]; ~50 min exposure, 1-4 μM): protective effect
- IC50 at 7 h [4, 6]: 5 µM

Compound: CN1/C(=C/C=C/C=C/C=C/C2=[N+](CCCCCCN)c3ccc4ccccc4c3C2(C)C)C(C)(C)c2c1ccc1ccccc21 [GL-286]
- IC50 at 2 days [3, 5]: 2.88 µM
- cell viability at short incubation and low concentration ([1]; 1 day incubation, concentrations below 1 μM): can increase the cell viability
- cytotoxicity at long exposure ([1]; A375, 1 day vs 2 days exposure): showed cytotoxicity
- IC50 at 7 h [4, 6]: 1 µM

Compound: CN(C)CCCCCC[N+]1=C(/C=C/C=C/C=C/C=C2/N(C)c3ccc4ccccc4c3C2(C)C)C(C)(C)c2c1ccc1ccccc21 [GL-291-2]
- IC50 at 2 days [3]: 1.5 µM
- cytotoxicity at long exposure [1]: showed cytotoxicity

Compound: COC(=O)C(/C=C/C=C1/N(C)c2ccc3ccccc3c2C1(C)C)=C(C)\C=C\C1=[N+](CCCCCCN(C)C)c2ccc3ccccc3c2C1(C)C [GL-297-2]
- IC50 at 2 days [3]: 1 µM
- IC50 at 7 h [4]: 0.45 µM

Compound: CN(C)CC[N+]1=C(/C=C/C=C/C=C/C=C2/N(C)c3ccc4ccccc4c3C2(C)C)C(C)(C)c2c1ccc1ccccc21 [GL-308-2]
- IC50 at 2 days [3]: 0.5 µM

Compound: CN1/C(=C/C=C/C=C/C=C/C2=[N+](CCCCCC[N+](C)(C)C)c3ccc4ccccc4c3C2(C)C)C(C)(C)c2c1ccc1ccccc21 [GL-328-2]
- IC50 at 2 days [3]: 7 µM

Compound: CN(C)CC[N+]1=C(/C=C/C2=CC(=C/C=C3/N(C)c4ccc5ccccc5c4C3(C)C)/CC(C(C)(C)C)C2)C(C)(C)c2c1ccc1ccccc21 (stereo not shown) [GL-349-2]
- IC50 at 2 days [3]: 0.3 µM

Compound: CC(=O)NCCCCCC[N+]1=C(/C=C/C=C/C=C/C=C2/N(C)c3ccc4ccccc4c3C2(C)C)C(C)(C)c2c1ccc1ccccc21 [GL-362-2]
- IC50 at 7 h [4]: 0.19 µM

Compound: CCCCCCCCCC(=O)N[C@@H](Cc1c[nH]c2ccccc12)C(=O)N[C@H](CC(N)=O)C(=O)N[C@@H](CC(=O)O)C(=O)N[C@@H]1C(=O)NCC(=O)N[C@@H](CCCN)C(=O)N[C@@H](CC(=O)O)C(=O)N[C@H](C)C(=O)N[C@@H](CC(=O)O)C(=O)NCC(=O)N[C@H](CO)C(=O)N[C@@H]([C@H](C)CC(=O)O)C(=O)N[C@@H](CC(=O)c2ccccc2N)C(=O)O[C@@H]1C [daptomycin]
- maximum reduction in bacterial population size (S. aureus): ≈ 3 log10

Compound: gramicidin
- maximum reduction in bacterial population size (S. aureus): ≈ 3 log10
